The Kinase Knowledgebase extract (Sharma et al. 2016)

Experiments:
PIK3CG (human) = PIK3CG (human) (UniProt P48736); experiment: Enzyme Assay
PIK3CA (human) [1] = biological target: PIK3CA (human) (UniProt P42336); experiment: Enzyme Assay
PIK3CD (Human) [2] = biological target: PIK3CD (Human) (UniProt O00329); experiment: Enzyme Assay
PIK3CA (human) [3] = biological target: PIK3CA (human) (UniProt P42336); experiment: Cell-Based Assay; conditions: rat-1
PIK3CD (Human) [4] = biological target: PIK3CD (Human) (UniProt O00329); experiment: Cell-Based Assay; conditions: rat-1

Chain of PIK3CG (human) (P48736 whole entry, looked up): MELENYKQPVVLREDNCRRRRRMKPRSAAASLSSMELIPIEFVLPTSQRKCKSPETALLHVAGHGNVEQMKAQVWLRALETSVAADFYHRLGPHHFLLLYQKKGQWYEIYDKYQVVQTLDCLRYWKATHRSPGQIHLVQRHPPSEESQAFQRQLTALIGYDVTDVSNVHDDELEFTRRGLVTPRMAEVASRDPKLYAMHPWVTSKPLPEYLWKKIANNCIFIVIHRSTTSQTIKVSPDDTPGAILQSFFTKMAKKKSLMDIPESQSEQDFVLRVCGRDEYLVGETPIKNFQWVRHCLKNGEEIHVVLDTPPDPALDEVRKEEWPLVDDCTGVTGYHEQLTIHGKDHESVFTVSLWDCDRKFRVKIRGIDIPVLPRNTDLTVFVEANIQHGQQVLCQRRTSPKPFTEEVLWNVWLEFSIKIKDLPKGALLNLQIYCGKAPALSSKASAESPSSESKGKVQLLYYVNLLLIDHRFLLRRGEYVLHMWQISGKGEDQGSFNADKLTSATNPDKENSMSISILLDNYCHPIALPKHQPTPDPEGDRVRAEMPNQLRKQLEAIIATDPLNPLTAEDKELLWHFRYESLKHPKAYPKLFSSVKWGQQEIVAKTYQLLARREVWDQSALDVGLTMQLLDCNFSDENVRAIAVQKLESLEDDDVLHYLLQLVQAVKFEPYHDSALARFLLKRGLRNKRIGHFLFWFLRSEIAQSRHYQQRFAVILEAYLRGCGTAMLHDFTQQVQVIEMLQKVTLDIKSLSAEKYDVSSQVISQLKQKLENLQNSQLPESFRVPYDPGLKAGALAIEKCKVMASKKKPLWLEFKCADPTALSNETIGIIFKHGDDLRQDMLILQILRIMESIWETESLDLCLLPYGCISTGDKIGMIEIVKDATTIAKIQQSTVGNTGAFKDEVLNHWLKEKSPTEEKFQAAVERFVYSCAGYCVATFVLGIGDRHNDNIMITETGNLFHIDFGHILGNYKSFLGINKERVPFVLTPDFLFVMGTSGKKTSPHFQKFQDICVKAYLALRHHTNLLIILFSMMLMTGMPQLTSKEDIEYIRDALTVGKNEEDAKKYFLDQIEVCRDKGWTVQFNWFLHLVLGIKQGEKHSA
Chain of PIK3CD (Human) (O00329 whole entry, looked up): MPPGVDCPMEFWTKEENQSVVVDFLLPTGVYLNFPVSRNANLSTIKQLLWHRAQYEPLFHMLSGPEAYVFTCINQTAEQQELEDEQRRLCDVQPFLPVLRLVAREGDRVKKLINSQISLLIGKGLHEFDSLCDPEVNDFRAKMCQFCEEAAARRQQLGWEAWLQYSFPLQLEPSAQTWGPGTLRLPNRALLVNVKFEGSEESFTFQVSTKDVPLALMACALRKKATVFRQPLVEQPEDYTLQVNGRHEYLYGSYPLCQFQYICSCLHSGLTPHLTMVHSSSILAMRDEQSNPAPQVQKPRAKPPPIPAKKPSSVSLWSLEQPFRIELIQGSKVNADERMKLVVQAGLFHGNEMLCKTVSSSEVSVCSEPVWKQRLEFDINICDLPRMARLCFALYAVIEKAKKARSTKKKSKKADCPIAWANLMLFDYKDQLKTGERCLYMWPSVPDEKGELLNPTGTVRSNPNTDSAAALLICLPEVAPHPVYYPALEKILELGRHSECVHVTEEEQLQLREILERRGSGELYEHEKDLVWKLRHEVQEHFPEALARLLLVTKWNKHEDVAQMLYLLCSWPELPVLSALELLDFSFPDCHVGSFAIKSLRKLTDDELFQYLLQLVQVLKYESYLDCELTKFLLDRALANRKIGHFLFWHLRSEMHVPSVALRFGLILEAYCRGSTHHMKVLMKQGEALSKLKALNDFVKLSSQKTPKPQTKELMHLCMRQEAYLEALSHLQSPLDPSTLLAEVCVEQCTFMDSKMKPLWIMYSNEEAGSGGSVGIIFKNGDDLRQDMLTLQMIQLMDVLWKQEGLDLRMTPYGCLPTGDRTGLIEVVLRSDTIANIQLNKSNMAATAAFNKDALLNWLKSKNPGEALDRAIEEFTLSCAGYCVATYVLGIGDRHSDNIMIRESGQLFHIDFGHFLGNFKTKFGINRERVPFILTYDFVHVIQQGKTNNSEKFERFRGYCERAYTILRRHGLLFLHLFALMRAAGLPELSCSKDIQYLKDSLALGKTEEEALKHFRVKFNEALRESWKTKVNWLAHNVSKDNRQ
Chain of PIK3CA (human) (P42336 whole entry, looked up): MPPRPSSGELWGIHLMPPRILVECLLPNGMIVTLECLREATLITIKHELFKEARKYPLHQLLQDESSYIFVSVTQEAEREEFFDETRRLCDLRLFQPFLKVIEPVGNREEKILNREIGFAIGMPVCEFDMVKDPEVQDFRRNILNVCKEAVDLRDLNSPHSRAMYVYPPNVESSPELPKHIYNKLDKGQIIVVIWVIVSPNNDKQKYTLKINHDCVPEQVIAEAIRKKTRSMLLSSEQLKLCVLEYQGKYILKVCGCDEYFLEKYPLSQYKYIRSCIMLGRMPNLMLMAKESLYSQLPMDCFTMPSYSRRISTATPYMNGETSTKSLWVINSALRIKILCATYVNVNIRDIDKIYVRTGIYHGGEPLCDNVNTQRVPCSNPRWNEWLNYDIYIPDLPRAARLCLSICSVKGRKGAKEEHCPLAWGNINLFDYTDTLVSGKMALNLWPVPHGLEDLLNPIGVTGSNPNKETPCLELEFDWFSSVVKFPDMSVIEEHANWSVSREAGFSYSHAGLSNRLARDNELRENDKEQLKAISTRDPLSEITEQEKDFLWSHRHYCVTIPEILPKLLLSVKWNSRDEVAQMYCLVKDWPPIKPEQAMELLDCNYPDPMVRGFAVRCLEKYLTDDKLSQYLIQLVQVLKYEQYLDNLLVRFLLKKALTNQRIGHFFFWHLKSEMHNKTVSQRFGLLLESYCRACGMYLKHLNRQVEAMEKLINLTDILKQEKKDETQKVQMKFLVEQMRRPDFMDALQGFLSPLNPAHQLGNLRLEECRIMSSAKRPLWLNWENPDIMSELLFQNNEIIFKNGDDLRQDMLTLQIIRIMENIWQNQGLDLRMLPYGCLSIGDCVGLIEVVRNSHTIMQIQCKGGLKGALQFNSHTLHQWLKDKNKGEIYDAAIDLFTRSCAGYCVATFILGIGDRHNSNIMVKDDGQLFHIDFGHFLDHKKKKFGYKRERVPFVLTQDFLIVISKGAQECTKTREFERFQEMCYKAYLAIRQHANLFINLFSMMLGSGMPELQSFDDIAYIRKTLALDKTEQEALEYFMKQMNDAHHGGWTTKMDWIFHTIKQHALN

IC50 (PIK3CG (human))	IC50 (PIK3CA (human) [1])	IC50 (PIK3CD (Human) [2])	IC50 (PIK3CA (human) [3])	IC50 (PIK3CD (Human) [4])	SMILES
200 nM	1800 nM	10 nM	> 10000 nM	198 nM	O=c1c2c(Cl)cccc2nc([C@@H]2CCCN2c2ncnc3[nH]cnc23)n1N1CCCCC1
200 nM	1600 nM	11 nM	> 10000 nM	20 nM	N#Cc1c(N)ncnc1N1CCC[C@H]1c1nc2cccc(Cl)c2c(=O)n1N1CCOCC1
445 nM	5950 nM	1430 nM	5460 nM	894 nM	Cn1cnc2c(N3CCC[C@H]3c3nc4cccc(Cl)c4c(=O)n3C3CC3)nc(N)nc21
1100 nM	> 10000 nM	16 nM	> 10000 nM	13 nM	N#Cc1c(N)ncnc1N1CCC[C@H]1c1nc2cccc(Cl)c2c(=O)n1C1CCCCC1
190 nM	1100 nM	21 nM	3530 nM	26 nM	CN(C)n1c([C@@H]2CCCN2c2ncnc(N)c2C#N)nc2cccc(Cl)c2c1=O
3700 nM	> 10000 nM	210 nM	> 10000 nM		CS(=O)(=O)N1CC[C@@H](n2c([C@@H]3CCCN3c3ncnc4[nH]cnc34)nc3cccc(Cl)c3c2=O)C1

Further lines, the molecule ahead of its results:

SMILES	IC50 (PIK3CG (human))	IC50 (PIK3CA (human) [1])	IC50 (PIK3CD (Human) [2])	IC50 (PIK3CA (human) [3])	IC50 (PIK3CD (Human) [4])
O=c1c2c(Cl)cccc2nc([C@@H]2CSCN2c2ncnc3[nH]cnc23)n1-c1ccccc1C1CC1	340 nM	7900 nM	21 nM	7140 nM	142 nM
COC(=O)N1CC[C@@H](n2c([C@@H]3CCCN3c3ncnc4[nH]cnc34)nc3cccc(Cl)c3c2=O)C1	> 10000 nM	> 10000 nM	200 nM	> 10000 nM	2350 nM
Cc1ccc(-n2c([C@@H]3CSCN3c3ncnc(N)c3C#N)nc3cccc(Cl)c3c2=O)s1	1100 nM	> 10000 nM	82 nM	> 10000 nM	262 nM
O=c1c2c(Cl)cccc2nc([C@@H]2CCCN2c2ncnc3[nH]cnc23)n1[C@@H]1CCN(S(=O)(=O)C2CC2)C1	5600 nM	> 10000 nM	510 nM	> 10000 nM	
Cc1nc(N)nc(N2CCC[C@H]2c2nc3cccc(Cl)c3c(=O)n2-c2ccccc2)c1C#N	22 nM	72 nM	7 nM	1110 nM	5 nM
Cc1c(F)ccc2nc([C@@H]3CCCN3c3ncnc(N)c3C#N)n(-c3ccccc3)c(=O)c12	120 nM	700 nM	11 nM	7160 nM	25 nM
O=c1c2c(Cl)cccc2nc([C@@H]2CCON2c2ncnc3scnc23)n1-c1ccccc1	81 nM	1500 nM	7 nM	5990 nM	57 nM
COC(=O)N1CC[C@H](n2c([C@@H]3CCCN3c3ncnc4[nH]cnc34)nc3cccc(Cl)c3c2=O)C1	> 10000 nM	9300 nM	440 nM	> 10000 nM	1150 nM
Cc1nc(N)c(C#N)c(N2CCC[C@H]2c2nc3cccc(C(F)(F)F)c3c(=O)n2-c2ccccc2)n1	> 10000 nM	> 10000 nM	43 nM	> 10000 nM	> 10000 nM
N#Cc1c(N)ncnc1N1CCC[C@H]1c1nc2ccc(F)c(F)c2c(=O)n1-c1ccccc1	2300 nM	5550 nM	90 nM	> 10000 nM	< 3 nM
O=c1c2c(Cl)cccc2nc([C@@H]2CCON2c2ncnc3[nH]cnc23)n1-c1ccccc1	980 nM		150 nM	> 10000 nM	1810 nM
Nc1nc(N2C[C@@H](O)C[C@H]2c2nc3cccc(Cl)c3c(=O)n2-c2ccccc2)c2nccn2n1	31 nM	1000 nM	15 nM		
Cn1nccc1-n1c([C@@H]2CSCN2c2ncnc3[nH]cnc23)nc2cccc(Cl)c2c1=O	420 nM		56 nM	> 10000 nM	222 nM
